Experiments:
Assay type in all cases: in vitro ADME
[1] = Metabolic stability in rat hepatocytes; details: cryopreserved hepatocytes, 1 μM
Procedure: (§1) Test compounds were incubated in rat and human hepatocytes and stability was assessed from the substrate […] approach. Test compounds were dissolved in dimethyl sulfoxide (DMSO) to create a 10 mM Stock, and then further diluted to create a 1000× Working Stock of 1 mM with DMSO in 96-well plates for test compounds and the positive control (midazolam). Vials containing cryopreserved hepatocytes were removed from the liquid nitrogen tank and immediately immersed in a 37° C. water bath. The vials were shaken gently until the contents had thawed and were then immediately emptied into 48 mL of pre-warmed HT Medium in a 50 mL conical tube. Cells remaining in the vial were resuspended with 1.0 mL of pre-warmed HT Medium and added to the conical tube. The tube was capped and then gently inverted several times to resuspend the hepatocytes. The cell suspension was centrifuged at 50×g at room temperature for 5 minutes and the supernatant discarded. The cell pellet was loosened by gently swirling the centrifuge tube and was re-suspended in 4 mL of warm Dulbecco's Modified Eagle medium (DMEM). Cell density was determined by a cell counter by Nexcelom, and DMEM medium was added to obtain a target density of 1×10^6 cells/mL. The assay was carried out in 96-well microtiter plates. Test Compounds were incubated at 1 μM with 1×10^6 cells/mL hepatocytes in DMEM for 0, 30, 60, 120 and 240 minutes. The incubation was carried out with gentle shaking at 37° C. under a humid atmosphere of 95% air/5% CO2. The volume of the incubation mixture was 37 μL with a final 0.1% DMSO. At each of the time points, the incubation was stopped by adding 150 μL quenching solution (100% acetonitrile, 0.1% formic acid containing bucetin as an internal standard for positive ESI mode). Subsequently, the mixtures were vortexed for 20 min and centrifuged at 4,000 RPM at 10° C. The supernatant (80 μL) was transferred to a clean 96-well plate and analyzed by LC-MS/MS. Midazolam at 1 μM with a final 0.1% DMSO was included as a positive control to verify assay performance. The percent parent remaining, intrinsic and predicted hepatic clearance and t1/2 were calculated. All samples were analyzed by LC-MS/MS using an AB Sciex API 4000 instrument, coupled to a Shimadzu LC-20AD LC Pump system. Separation was achieved using a Waters Atlantis T3 dC18 reverse phase HPLC column (20 mm×2.1 mm) at a flow rate of 0.5 mL/min. The mobile phase consisted of 0.1% formic acid in water (solvent A) and 0.1% formic acid in 100% acetonitrile (solvent B). Elution conditions are detailed below.
(§2) The ion optics of each test compound were optimized for their declustering potential (DP), […] (CE), collision-cell exit potential (CXP) and used in a selected ion monitoring experiment in the positive ion mode. The peak area ratio of each test compound to internal standard was then evaluated for stability. The extent of metabolism was calculated based on the disappearance of the test compound, compared to its initial concentration. The initial rates of clearance of the test compound were calculated using the linear regression plot of semi-log % remaining of the compound versus time. The elimination rate constant (k) of the linear regression plot was then used to determine t1/2 and the intrinsic clearance (CLint) using the following formula, where Chepatocyte (million cells/mL) is the cell density of the incubation:
(§3) The predicted hepatic clearance (CLhep) was calculated using the well stirred method with the following formula with CLint(in vivo) normalized based on liver weight: […]
(§4) The relevant physiological parameters of liver weight, blood flow, and hepatocellularity for various species are listed below: […]

[2] = Metabolic stability in human hepatocytes; details: cryopreserved hepatocytes; human hepatocytes, 1 μM
Procedure: as §1, §2, §3, §4

[3] = Caco-2 passive permeability and efflux ratio; details: human; for efflux ratio at 120 min, 5 μM: pH 7.4, Caco-2, Papp (B-to-A)/Papp (A-to-B), read-out: Efflux Ratio (ER); for Papp at 120 min, 5 μM: Caco-2, 5 μM, pH 7.4, 120 minutes
Procedure: Caco-2 cells (clone C2BBe1) were obtained from American Type Culture Collection (Manassas, VA). Cell monolayers were grown to confluence on collagen-coated, microporous membranes in 12-well assay plates. Details of the plates and their certification are shown below. The permeability assay buffer was Hanks' balanced salt solution containing 10 mM HEPES and 15 mM glucose at a pH of 7.4. The buffer in the receiver chamber also contained 1% bovine serum albumin. The dosing solution concentration was 5 μM of test article in the assay buffer. Cell monolayers were dosed on the apical side (A-to-B) or basolateral side (B-to-A) and incubated at 37° C. with 5% CO2 in a humidified incubator. Samples were taken from the donor and receiver chambers at 120 minutes. Each determination was performed in duplicate. The flux of lucifer yellow was also measured post-experimentally for each monolayer to ensure no damage was inflicted to the cell monolayers during the flux period. All samples were assayed by LC-MS/MS using electrospray ionization. The apparent permeability (Papp) and percent recovery were calculated as follows:
[formula] [formula] where, dCr/dt is the slope of the cumulative receiver concentration versus time in μM s^−1; Vr is the volume of the receiver compartment in cm^3; Vd is the volume of the donor compartment in cm^3; A is the area of the insert (1.13 cm^2 for 12-well); CA is the average of the nominal dosing concentration and the measured 120-minute donor concentration in μM; CN is the nominal concentration of the dosing solution in μM; Cr^final is the cumulative receiver concentration in μM at the end of the incubation period; Cd^final is the concentration of the donor in μM at the end of the incubation period. Efflux ratio (ER) is defined as Papp (B-to-A)/Papp (A-to-B).

| SMILES | CLint scaled at 1 μM [1] [L/h/kg] | half-life at 1 μM [1] [h] | CLint scaled at 1 μM [2] [L/h/kg] | half-life at 1 μM [2] [h] | efflux ratio at 120 min, 5 μM [3] | Papp at 120 min, 5 μM [3] [nm/s] |
| --- | --- | --- | --- | --- | --- | --- |
| N#Cc1ccc(COc2cccc(C3CCN(Cc4nc5ccc(C(=O)O)cc5n4Cc4cncs4)CC3)n2)c(F)c1 [Compound 2] | 2.56 ± 0.148 | 1.32 ± 0.083 | 0.931 ± 0.0492 | 2.61 ± 0.154 | 1.66 | 315 |
| N#Cc1ccc(COc2ccnc(C3CCN(Cc4nc5ccc(C(=O)O)cc5n4Cc4cncs4)CC3)n2)c(F)c1 [Compound 20] | 2.34 ± 0.0684 | 1.49 ± 0.044 | 0.635 ± 0.0396 | 3.82 ± 0.241 | 9.77 | 28.2 |
| N#Cc1ccc(COc2cccc(C3CCN(Cc4nc5ccc(C(=O)O)cc5n4C[C@@H]4CCO4)CC3)n2)c(F)c1 [Reference Compound A, reference compound] | 2.89 ± 0.0798 | 1.21 ± 0.0425 | 0.431 ± 0.027 | 5.79 ± 0.379 | – | 155 |

More lines, now with the values ahead:

| CLint scaled at 1 μM [1] [L/h/kg] | half-life at 1 μM [1] [h] | CLint scaled at 1 μM [2] [L/h/kg] | half-life at 1 μM [2] [h] | efflux ratio at 120 min, 5 μM [3] | Papp at 120 min, 5 μM [3] [nm/s] | SMILES |
| --- | --- | --- | --- | --- | --- | --- |
| 2.16 ± 0.0816 | 1.62 ± 0.0477 | 1.46 ± 0.0444 | 1.66 ± 0.0508 | 0.975 | 499 | Cc1ncsc1Cn1c(CN2CCC(c3cccc(OCc4ccc(C#N)cc4F)n3)CC2)nc2ccc(C(=O)O)cc21 [Compound 4] |
| 1.95 ± 0.0438 | 1.71 ± 0.0383 | 0.431 ± 0.0186 | 5.58 ± 0.244 | 2.14 | 94.1 | N#Cc1ccc(COc2cccc(N3CCN(Cc4nc5ccc(C(=O)O)cc5n4Cc4cncs4)CC3)n2)c(F)c1 [Compound 30] |
| 1.81 ± 0.09 | 1.83 ± 0.0907 | 1.05 ± 0.0798 | 2.29 ± 0.174 | 1.31 | 168 | CC1(c2ccc(C#N)cc2F)Oc2cccc(C3CCN(Cc4nc5ccc(C(=O)O)cc5n4Cc4cncs4)CC3)c2O1 (centres unmarked) [Compound 31] |
